Data on one compound can be found in publication PMC3340143 (The Journal of Biological Chemistry, 2012).

The target of this assay is T1, CymA (Shewanella oneidensis, UniProt Q8E8S0).
T1 sequence (Q8E8S0 1-187): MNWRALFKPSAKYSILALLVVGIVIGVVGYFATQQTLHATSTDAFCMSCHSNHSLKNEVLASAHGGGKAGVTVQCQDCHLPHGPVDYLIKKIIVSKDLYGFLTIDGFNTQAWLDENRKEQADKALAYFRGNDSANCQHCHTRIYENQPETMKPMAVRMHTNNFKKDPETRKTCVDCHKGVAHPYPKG
As to the kind of experiment: protein-film cyclic voltammetry, inhibition of menaquinone-7 reduction. The assay is classed as biochemical.

The term Ki denotes the equilibrium dissociation constant of an inhibitor or competing ligand from its target. Take `CCCCCCCc1cc(O)c2ccccc2[n+]1[O-]` [HQNO]: the affinity, expressed as Ki, was 800 nM.
